According to US12559506B2, “Indazole based compounds and associated methods of use” (Arvinas Operations, Inc., priority 2021, dated 2026):

Assays:
G2019S LRRK2 = molecular target: T1, G2019S LRRK2 (Homo sapiens, UniProt Q5S007, G2019S); assay: LRRK2 degradation assay, HiBit-tagged G2019S LRRK2 expressed from plasmid in HEK293 cells (Nano-Glo Dual-Luciferase); type: cell-based; details: HiBit-tagged G2019S LRRK2 in HEK293 cells, 24 hours
T1 construct: expressed in transfected cells; host or cells: HEK293 (ATCC CRL-1573), transient transfection, mammalian expression vector with ubiquitin promoter
How it was run: (§1)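 HEK293 cells co-transfected with C-terminal HiBiT-tagged LRRK2 (WT or G2019S, ubiquitin promoter) and firefly luciferase, then dosed 24 h at 37 °C. HiBiT/firefly ratio normalized to DMSO median; DC50 and Dmax from per-plate curve fits, six replicates over two days.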

wildtype LRRK2 = molecular target: T2, wildtype LRRK2 (Homo sapiens, UniProt Q5S007); assay: LRRK2 degradation assay, HiBit-tagged wildtype LRRK2 expressed from plasmid in HEK293 cells (Nano-Glo Dual-Luciferase); type: cell-based; details: HiBit-tagged wildtype LRRK2 in HEK293 cells, 24 hours; for Dmax: read-out: **WT Dmax (%); for DC50: read-out: *WT DC50
T2 construct: expressed in transfected cells; host or cells: HEK293 (ATCC CRL-1573), transient transfection, mammalian expression vector with ubiquitin promoter
How it was run: as §1

T2 sequence (Q5S007 whole entry): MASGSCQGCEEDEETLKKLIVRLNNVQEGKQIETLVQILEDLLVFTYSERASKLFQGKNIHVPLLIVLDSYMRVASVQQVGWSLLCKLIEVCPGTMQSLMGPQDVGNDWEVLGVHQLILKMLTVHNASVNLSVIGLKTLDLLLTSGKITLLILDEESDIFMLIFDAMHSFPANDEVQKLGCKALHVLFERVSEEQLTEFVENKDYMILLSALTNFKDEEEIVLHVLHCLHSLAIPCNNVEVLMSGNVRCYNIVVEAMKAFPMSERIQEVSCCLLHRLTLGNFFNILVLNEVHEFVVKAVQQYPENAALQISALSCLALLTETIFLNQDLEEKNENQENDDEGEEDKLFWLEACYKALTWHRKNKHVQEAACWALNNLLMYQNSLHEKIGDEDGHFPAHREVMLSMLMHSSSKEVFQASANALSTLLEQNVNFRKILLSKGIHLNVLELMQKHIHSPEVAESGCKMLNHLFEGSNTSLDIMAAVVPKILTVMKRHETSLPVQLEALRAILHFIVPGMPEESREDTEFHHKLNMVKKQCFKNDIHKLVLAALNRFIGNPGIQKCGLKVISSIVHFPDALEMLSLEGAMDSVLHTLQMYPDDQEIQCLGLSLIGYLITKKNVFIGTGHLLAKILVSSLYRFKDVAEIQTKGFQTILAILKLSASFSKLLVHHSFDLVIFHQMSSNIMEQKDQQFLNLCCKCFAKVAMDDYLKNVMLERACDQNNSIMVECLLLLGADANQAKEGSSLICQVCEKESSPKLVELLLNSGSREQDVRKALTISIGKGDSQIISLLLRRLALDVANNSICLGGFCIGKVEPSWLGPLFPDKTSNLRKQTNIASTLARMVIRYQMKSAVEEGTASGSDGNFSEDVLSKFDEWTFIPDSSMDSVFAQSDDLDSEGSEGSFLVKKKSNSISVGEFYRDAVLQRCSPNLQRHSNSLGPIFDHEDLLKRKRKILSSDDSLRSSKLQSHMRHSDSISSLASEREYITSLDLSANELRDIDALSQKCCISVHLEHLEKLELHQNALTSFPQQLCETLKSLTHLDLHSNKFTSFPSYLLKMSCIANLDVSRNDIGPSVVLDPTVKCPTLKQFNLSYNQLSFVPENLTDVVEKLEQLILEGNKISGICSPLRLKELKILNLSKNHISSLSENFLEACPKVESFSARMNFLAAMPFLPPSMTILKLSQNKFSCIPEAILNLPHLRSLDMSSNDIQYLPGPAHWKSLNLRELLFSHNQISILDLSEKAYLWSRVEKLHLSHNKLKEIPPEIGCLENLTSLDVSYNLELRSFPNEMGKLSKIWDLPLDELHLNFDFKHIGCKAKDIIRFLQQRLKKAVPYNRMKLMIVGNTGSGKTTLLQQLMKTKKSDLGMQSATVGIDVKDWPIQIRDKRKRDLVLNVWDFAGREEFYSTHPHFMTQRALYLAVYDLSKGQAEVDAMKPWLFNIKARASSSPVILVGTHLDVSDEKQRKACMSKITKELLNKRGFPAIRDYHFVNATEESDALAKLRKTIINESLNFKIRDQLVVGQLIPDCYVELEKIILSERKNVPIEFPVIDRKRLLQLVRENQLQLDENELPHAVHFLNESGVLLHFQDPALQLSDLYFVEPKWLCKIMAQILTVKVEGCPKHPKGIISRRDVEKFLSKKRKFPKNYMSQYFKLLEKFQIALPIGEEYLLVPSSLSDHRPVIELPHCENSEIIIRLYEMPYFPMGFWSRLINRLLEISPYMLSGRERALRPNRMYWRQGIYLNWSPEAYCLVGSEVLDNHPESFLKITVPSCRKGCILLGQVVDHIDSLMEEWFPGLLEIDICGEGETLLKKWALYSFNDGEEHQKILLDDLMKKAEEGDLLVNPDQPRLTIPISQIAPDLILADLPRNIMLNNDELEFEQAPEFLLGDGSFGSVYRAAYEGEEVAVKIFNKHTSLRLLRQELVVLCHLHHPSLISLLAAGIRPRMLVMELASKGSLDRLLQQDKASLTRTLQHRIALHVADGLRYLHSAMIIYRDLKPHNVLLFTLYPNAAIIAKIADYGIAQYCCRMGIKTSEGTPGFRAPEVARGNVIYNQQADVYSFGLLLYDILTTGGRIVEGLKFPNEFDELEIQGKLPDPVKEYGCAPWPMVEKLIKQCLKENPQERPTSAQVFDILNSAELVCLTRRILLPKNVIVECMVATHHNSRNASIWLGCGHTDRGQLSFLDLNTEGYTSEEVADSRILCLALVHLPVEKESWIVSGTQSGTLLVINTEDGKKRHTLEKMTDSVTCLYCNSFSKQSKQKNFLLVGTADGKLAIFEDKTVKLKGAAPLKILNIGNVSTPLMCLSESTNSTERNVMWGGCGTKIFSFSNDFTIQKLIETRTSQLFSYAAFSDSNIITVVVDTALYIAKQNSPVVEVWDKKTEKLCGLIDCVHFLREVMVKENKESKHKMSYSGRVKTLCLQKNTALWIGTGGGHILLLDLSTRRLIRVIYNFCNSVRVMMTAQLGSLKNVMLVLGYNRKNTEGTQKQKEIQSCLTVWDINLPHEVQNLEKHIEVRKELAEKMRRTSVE
T1 sequence (Q5S007 whole entry G2019S): as the sequence (Q5S007 whole entry) above, with G2019S counted along it

Row | Structure (SMILES) | DC50 (G2019S LRRK2) | Dmax (G2019S LRRK2) | Dmax (wildtype LRRK2) | DC50 (wildtype LRRK2)
1 | CC1(Oc2ccc3[nH]nc(-c4ccnc(N5CCC(O[C@H]6CC[C@H](OC7CCN(c8ccc9c(c8)C(=O)N(C8CCC(=O)NC8=O)C9=O)CC7)CC6)CC5)c4)c3c2)CC1 (stereo partly shown) [Compound 100, 2-(2,6-dioxopiperidin-3-yl)-5-(4-{[(1r,4r)-4-[(1-{4-[5-(1-methylcyclopropoxy)-1H-indazol-3-yl]pyridin-2-yl}piperidin-4-yl)oxy]cyclohexyl]oxy}piperidin-1-yl)-2,3-dihydro-1H-isoindole-1,3-dione] | 10 to 50 nM | 50 to 70% | < 50% | 10 to 50 nM
2 | CC1(Oc2ccc3[nH]nc(-c4ccnc(N5CCN(C[C@H]6CC[C@H](CN7CCN(c8ccc9c(c8)C(=O)N(C8CCC(=O)NC8=O)C9=O)CC7)CC6)CC5)c4)c3c2)CC1 (stereo partly shown) [Compound 102, 2-(2,6-dioxopiperidin-3-yl)-5-(4-{[(1r,4r)-4-[(4-{4-[5-(1-methylcyclopropoxy)-1H-indazol-3-yl]pyridin-2-yl}piperazin-1-yl)methyl]cyclohexyl]methyl}piperazin-1-yl)-2,3-dihydro-1H-isoindole-1,3-dione] | 10 to 50 nM | < 50% | < 50% | 10 to 50 nM
3 | C[C@H]1CN(c2cc(-c3n[nH]c4cc(F)c(OC5(C)CC5)cc34)ncn2)CCN1CC1(F)CCN(CC2CCN(c3ccc4c(c3)C(=O)N(C3CCC(=O)NC3=O)C4=O)CC2)CC1 (stereo partly drawn) [Compound 106, 2-(2,6-dioxo-3-piperidyl)-5-[4-[[4-fluoro-4-[[(2S)-4-[6-[6-fluoro-5-(1-methylcyclopropoxy)-1H-indazol-3-yl]pyrimidin-4-yl]-2-methyl-piperazin-1-yl]methyl]-1-piperidyl]methyl]-1-piperidyl]isoindoline-1,3-dione] | < 10 nM | < 50% | < 50% | < 10 nM
4 | CC1(Oc2ccc3[nH]nc(-c4cc(N5CCC(O[C@H]6CC[C@H](OC7CCN(c8ccc9c(c8)C(=O)N(C8CCC(=O)NC8=O)C9=O)CC7)CC6)CC5)ncn4)c3c2)CC1 (stereo partly shown) [Compound 108, 2-(2,6-dioxo-3-piperidyl)-5-[4-[4-[[1-[6-[5-(1-methylcyclopropoxy)-1H-indazol-3-yl]pyrimidin-4-yl]-4-piperidyl]oxy]cyclohexoxy]-1-piperidyl]isoindoline-1,3-dione] | 10 to 50 nM | < 50% | 50 to 70% | 10 to 50 nM
5 | C[C@H]1CN(c2cc(-c3[nH]nc4ccc(OC5(C)CC5)cc34)ncn2)CCN1CC1CCN(CC2CCN(c3ccc4c(c3)CN(C3CCC(=O)NC3=O)C4=O)CC2)CC1 (stereo partly drawn) [Compound 109, 3-[5-[4-[[4-[[(2S)-2-methyl-4-[6-[5-(1-methylcyclopropoxy)-2H-indazol-3-yl]pyrimidin-4-yl]piperazin-1-yl]methyl]-1-piperidyl]methyl]-1-piperidyl]-1-oxo-isoindolin-2-yl]piperidine-2,6-dione] | < 10 nM | 50 to 70% | 50 to 70% | < 10 nM
6 | CC1(Oc2ccc3[nH]nc(-c4cc(N5CCN(CC6(F)CCN(CC7CCN(c8ccc9c(c8)CN(C8CCC(=O)NC8=O)C9=O)CC7)CC6)CC5)ncn4)c3c2)CC1 (stereo not shown) [Compound 110, 3-[5-[4-[[4-fluoro-4-[[4-[6-[5-(1-methylcyclopropoxy)-1H-indazol-3-yl]pyrimidin-4-yl]piperazin-1-yl]methyl]-1-piperidyl]methyl]-1-piperidyl]-1-oxo-isoindolin-2-yl]piperidine-2,6-dione] | < 10 nM | 50 to 70% | 50 to 70% | < 10 nM
7 | C[C@H]1CN(c2cc(-c3n[nH]c4ccc(OC5(C)CC5)cc34)ncn2)CCN1C[C@@H]1CCN(CC2CCN(c3ccc4c(c3)C(=O)N(C3CCC(=O)NC3=O)C4=O)CC2)C1 (stereo partly drawn) [Compound 113, 2-(2,6-dioxopiperidin-3-yl)-5-(4-{[(3R)-3-{[(2S)-2-methyl-4-{6-[5-(1-methylcyclopropoxy)-1H-indazol-3-yl]pyrimidin-4-yl}piperazin-1-yl]methyl}pyrrolidin-1-yl]methyl}piperidin-1-yl)-2,3-dihydro-1H-isoindole-1,3-dione] | < 10 nM | < 50% | 50 to 70% | < 10 nM
8 | C[C@H]1CN(c2cc(-c3n[nH]c4ccc(OC5(C)CC5)cc34)ncn2)CCN1CC1CN(CC2CCN(c3ccc4c(c3)C(=O)N(C3CCC(=O)NC3=O)C4=O)CC2)C1 (stereo partly drawn) [Compound 122, 2-(2,6-dioxo-3-piperidyl)-5-[4-[[3-[[(2S)-2-methyl-4-[6-[5-(1-methylcyclopropoxy)-1H-indazol-3-yl]pyrimidin-4-yl]piperazin-1-yl]methyl]azetidin-1-yl]methyl]-1-piperidyl]isoindoline-1,3-dione] | < 10 nM | 50 to 70% | 50 to 70% | < 10 nM
9 | CC1(Oc2ccc3[nH]nc(-c4cc(N5CCN(CC67CC(CN8CCN(c9ccc%10c(c9)C(=O)N(C9CCC(=O)NC9=O)C%10=O)CC8)(C6)C7)CC5)ncn4)c3c2)CC1 (stereo not shown) [Compound 124, 2-(2,6-dioxo-3-piperidyl)-5-[4-[[3-[[4-[6-[5-(1-methylcyclopropoxy)-2H-indazol-3-yl]pyrimidin-4-yl]piperazin-1-yl]methyl]-1-bicyclo[1.1.1]pentanyl]methyl]piperazin-1-yl]isoindoline-1,3-dione] | 10 to 50 nM | < 50% | < 50% | < 10 nM

More lines, now with the values ahead:

Row | DC50 (G2019S LRRK2) | Dmax (G2019S LRRK2) | Dmax (wildtype LRRK2) | DC50 (wildtype LRRK2) | Structure (SMILES)
10 | < 10 nM | < 50% | 50 to 70% | 10 to 50 nM | CC1(Oc2ccc3[nH]nc(-c4cc(N5CCN(C[C@H]6CC[C@H](CN7CCN(c8ccc9c(c8)C(=O)N(C8CCC(=O)NC8=O)C9=O)CC7)CC6)CC5)ncn4)c3c2)CC1 (stereo partly shown) [Compound 101, 2-(2,6-dioxo-3-piperidyl)-5-[4-[[4-[[4-[6-[5-(1-methylcyclopropoxy)-1H-indazol-3-yl]pyrimidin-4-yl]piperazin-1-yl]methyl]cyclohexyl]methyl]piperazin-1-yl]isoindoline-1,3-dione]
11 | 10 to 50 nM | 50 to 70% | < 50% | < 10 nM | CC1(Oc2ccc3[nH]nc(-c4cc(N5CCC(CN6CCN(CC7CCN(c8cc9c(cc8F)C(=O)N(C8CCC(=O)NC8=O)C9=O)CC7)CC6)CC5)ncn4)c3c2)CC1 (stereo not shown) [Compound 107, 2-(2,6-dioxo-3-piperidyl)-5-fluoro-6-[4-[[4-[[1-[6-[5-(1-methylcyclopropoxy)-1H-indazol-3-yl]pyrimidin-4-yl]-4-piperidyl]methyl]piperazin-1-yl]methyl]-1-piperidyl]isoindoline-1,3-dione]
12 | < 10 nM | 50 to 70% | 50 to 70% | < 10 nM | CC1(Oc2ccc3[nH]nc(-c4cc(N5CCC(CN6CC[C@@H](CN7CCN(c8ccc9c(c8)C(=O)N(C8CCC(=O)NC8=O)C9=O)CC7)C6)CC5)ncn4)c3c2)CC1 (stereo partly drawn) [Compound 115, 2-(2,6-dioxopiperidin-3-yl)-5-(4-{[(3R)-1-[(1-{6-[5-(1-methylcyclopropoxy)-1H-indazol-3-yl]pyrimidin-4-yl}piperidin-4-yl)methyl]pyrrolidin-3-yl]methyl}piperazin-1-yl)-2,3-dihydro-1H-isoindole-1,3-dione]
13 | < 10 nM | < 50% | 50 to 70% | < 10 nM | CC1(Oc2ccc3[nH]nc(-c4cc(N5CCC(O[C@@H]6CCN(CC7CCN(c8ccc9c(c8)C(=O)N(C8CCC(=O)NC8=O)C9=O)CC7)C6)CC5)ncn4)c3c2)CC1 (stereo partly drawn) [Compound 116, 2-(2,6-dioxo-3-piperidyl)-5-[4-[[(3R)-3-[[1-[6-[5-(1-methylcyclopropoxy)-1H-indazol-3-yl]pyrimidin-4-yl]-4-piperidyl]oxy]pyrrolidin-1-yl]methyl]-1-piperidyl]isoindoline-1,3-dione]
14 | < 10 nM | < 50% | < 50% | < 10 nM | CC1(Oc2ccc3[nH]nc(-c4cc(N5CCC(O[C@H]6CCN(CC7CCN(c8ccc9c(c8)C(=O)N(C8CCC(=O)NC8=O)C9=O)CC7)C6)CC5)ncn4)c3c2)CC1 (stereo partly drawn) [Compound 117, 2-(2,6-dioxopiperidin-3-yl)-5-(4-{[(3S)-3-[(1-{6-[5-(1-methylcyclopropoxy)-1H-indazol-3-yl]pyrimidin-4-yl}piperidin-4-yl)oxy]pyrrolidin-1-yl]methyl}piperidin-1-yl)-2,3-dihydro-1H-isoindole-1,3-dione]
15 | 10 to 50 nM | < 50% | 50 to 70% | 10 to 50 nM | CC1(Oc2ccc3[nH]nc(-c4cc(N5CCC(CN6CC[C@H](OC7CCN(c8ccc9c(c8)C(=O)N(C8CCC(=O)NC8=O)C9=O)CC7)C6)CC5)ncn4)c3c2)CC1 (stereo partly drawn) [Compound 118, 2-(2,6-dioxo-3-piperidyl)-5-[4-[(3S)-1-[[1-[6-[5-(1-methylcyclopropoxy)-1H-indazol-3-yl]pyrimidin-4-yl]-4-piperidyl]methyl]pyrrolidin-3-yl]oxy-1-piperidyl]isoindoline-1,3-dione]
16 | < 10 nM | < 50% | < 50% | < 10 nM | CC1(Oc2ccc3[nH]nc(-c4cc(N5CCC(CN6CC[C@@H](OC7CCN(c8ccc9c(c8)C(=O)N(C8CCC(=O)NC8=O)C9=O)CC7)C6)CC5)ncn4)c3c2)CC1 (stereo partly drawn) [Compound 119, 2-(2,6-dioxopiperidin-3-yl)-5-(4-{[(3R)-1-[(1-{6-[5-(1-methylcyclopropoxy)-1H-indazol-3-yl]pyrimidin-4-yl}piperidin-4-yl)methyl]pyrrolidin-3-yl]oxy}piperidin-1-yl)-2,3-dihydro-1H-isoindole-1,3-dione]
